# Test results: PMC10408569, “Recruitment of hexahydroquinoline as anticancer scaffold targeting inhibition of wild and mutants EGFR (EGFR^WT, EGFR^T790M, and EGFR^L858R)” (Journal of Enzyme Inhibition and Medicinal Chemistry, 2023)
# Legend:
# Assay in all cases: NCI-60 anticancer screening (SRB)
# Type in all cases: cell-based
# RPMI-8226 = settings: Homo sapiens; RPMI-8226, leukemia; one dose 10 μM; read-out: Growth Inhibition Percentage (GI %)
# DU-145 = settings: Homo sapiens; DU-145, prostate cancer; one dose 10 μM; read-out: Growth Inhibition Percentage (GI %)
# SN 12C = settings: Homo sapiens, SN12C; SN 12C, renal cancer; one dose 10 μM; read-out: Growth Inhibition Percentage (GI %)
# BT-549 = settings: Homo sapiens; BT-549, breast cancer; one dose 10 μM; read-out: Growth Inhibition Percentage (GI %)
# SF-268 = settings: Homo sapiens; SF-268, CNS cancer; one dose 10 μM; read-out: Growth Inhibition Percentage (GI %)
# COLO 205 = settings: Homo sapiens; COLO 205, colon cancer; one dose 10 μM; read-out: Growth Inhibition Percentage (GI %)
# OVCAR-3 = settings: Homo sapiens; OVCAR-3, ovarian cancer; one dose 10 μM; read-out: Growth Inhibition Percentage (GI %)
# CCRF-CEM = settings: Homo sapiens, leukemia, one dose 10 μM, read-out: Growth Inhibition Percentage (GI %)
# NCI-H226 = settings: Homo sapiens; NCI-H226, NSC lung cancer; one dose 10 μM; read-out: Growth Inhibition Percentage (GI %)
# SF-295 = settings: Homo sapiens; SF-295, CNS cancer; one dose 10 μM; read-out: Growth Inhibition Percentage (GI %)
# HS 578T = settings: Homo sapiens; HS 578T, breast cancer; one dose 10 μM; read-out: Growth Inhibition Percentage (GI %)
# NCI/ADR-RES = settings: Homo sapiens, ovarian cancer, one dose 10 μM, read-out: Growth Inhibition Percentage (GI %)
# HCT-116 = settings: Homo sapiens; HCT-116, colon cancer; one dose 10 μM; read-out: Growth Inhibition Percentage (GI %)
# SF-539 = settings: Homo sapiens; SF-539, CNS cancer; one dose 10 μM; read-out: Growth Inhibition Percentage (GI %)
# RXF 393 = settings: Homo sapiens; RXF 393, renal cancer; one dose 10 μM; read-out: Growth Inhibition Percentage (GI %)
# NCI-H522 = settings: Homo sapiens; NCI-H522, NSC lung cancer; one dose 10 μM; read-out: Growth Inhibition Percentage (GI %)
# NCI-H322M = settings: Homo sapiens, NSC lung cancer, one dose 10 μM, read-out: Growth Inhibition Percentage (GI %)
# TK-10 = settings: Homo sapiens; TK-10, renal cancer; one dose 10 μM; read-out: Growth Inhibition Percentage (GI %)
# HCC-2998 = settings: Homo sapiens; HCC-2998, colon cancer; one dose 10 μM; read-out: Growth Inhibition Percentage (GI %)
# OVCAR-5 = settings: Homo sapiens; OVCAR-5, ovarian cancer; one dose 10 μM; read-out: Growth Inhibition Percentage (GI %)
# SNB-19 = settings: Homo sapiens; SNB-19, CNS cancer; one dose 10 μM; read-out: Growth Inhibition Percentage (GI %)
# SK-MEL-2 = settings: Homo sapiens; SK-MEL-2, melanoma; one dose 10 μM; read-out: Growth Inhibition Percentage (GI %)
# MCF7 = settings: Homo sapiens; MCF7, breast cancer; one dose 10 μM; read-out: Growth Inhibition Percentage (GI %)
# LOX IMVI = settings: Homo sapiens, melanoma, one dose 10 μM, read-out: Growth Inhibition Percentage (GI %)
# U251 = settings: Homo sapiens, U-251; U251, CNS cancer; one dose 10 μM; read-out: Growth Inhibition Percentage (GI %)
# MDA-MB-468 = settings: Homo sapiens; MDA-MB-468, breast cancer; one dose 10 μM; read-out: Growth Inhibition Percentage (GI %)
# UO-31 = settings: Homo sapiens; UO-31, renal cancer; one dose 10 μM; read-out: Growth Inhibition Percentage (GI %)
# ACHN = settings: Homo sapiens, renal cancer, one dose 10 μM, read-out: Growth Inhibition Percentage (GI %)
SMILES,inhibition at 10 µM (RPMI-8226) [%],inhibition at 10 µM (DU-145) [%],inhibition at 10 µM (SN 12C) [%],inhibition at 10 µM (BT-549) [%],inhibition at 10 µM (SF-268) [%],inhibition at 10 µM (COLO 205) [%],inhibition at 10 µM (OVCAR-3) [%],inhibition at 10 µM (CCRF-CEM) [%],inhibition at 10 µM (NCI-H226) [%],inhibition at 10 µM (SF-295) [%],inhibition at 10 µM (HS 578T) [%],inhibition at 10 µM (NCI/ADR-RES) [%],inhibition at 10 µM (HCT-116) [%],inhibition at 10 µM (RXF 393) [%],inhibition at 10 µM (NCI-H522) [%],inhibition at 10 µM (NCI-H322M) [%],inhibition at 10 µM (TK-10) [%],inhibition at 10 µM (HCC-2998) [%],inhibition at 10 µM (OVCAR-5) [%],inhibition at 10 µM (SNB-19) [%],also measured
"CCOC(=O)C1=C(N)N(c2ccc(C)cc2)C2=C(C(=O)CC(C)(C)C2)C1c1ccccc1Cl (racemic) [6b, (±)-Ethyl 2-amino-4–(2-chlorophenyl)-7,7-dimethyl-1–(4-methylphenyl)-5-oxo-1,4,5,6,7,8-hexahydroquinoline-3-carboxylate]",22,< 10,< 10,11,< 10,19,17,< 10,< 10,< 10,< 10,< 10,17,< 10,17,< 10,< 10,< 10,< 10,12,inhibition at 10 µM (SF-539): < 10%; inhibition at 10 µM (SK-MEL-2): < 10%; inhibition at 10 µM (MCF7): 32%; inhibition at 10 µM (LOX IMVI): < 10%; inhibition at 10 µM (U251): < 10%; inhibition at 10 µM (MDA-MB-468): 20%; inhibition at 10 µM (UO-31): 19%; inhibition at 10 µM (ACHN): < 10%
"CCOC(=O)C1=C(N)N(c2ccccc2)C2=C(C(=O)CC(C)(C)C2)C1c1ccccc1OC (racemic) [6g, (±)-Ethyl 2-amino-4–(2-methoxyphenyl)-7,7-dimethyl-5-oxo-1-phenyl-1,4,5,6,7,8-hexahydroquinoline-3-carboxylate]",< 10,< 10,< 10,< 10,< 10,< 10,< 10,< 10,< 10,11,< 10,< 10,< 10,< 10,< 10,< 10,< 10,< 10,< 10,< 10,inhibition at 10 µM (SF-539): < 10%; inhibition at 10 µM (SK-MEL-2): < 10%; inhibition at 10 µM (MCF7): < 10%; inhibition at 10 µM (LOX IMVI): < 10%; inhibition at 10 µM (U251): < 10%; inhibition at 10 µM (MDA-MB-468): 11%; inhibition at 10 µM (UO-31): 26%; inhibition at 10 µM (ACHN): < 10%
"CCOC(=O)C1=C(N)N(c2ccc(C)cc2)C2=C(C(=O)CC(C)(C)C2)C1c1ccccc1OC (racemic) [6h, (±)-Ethyl 2-amino-4–(2-methoxyphenyl)-7,7-dimethyl-1–(4-methylphenyl)-5-oxo-1,4,5,6,7,8-hexahydroquinoline-3-carboxylate]",< 10,< 10,< 10,< 10,< 10,< 10,< 10,< 10,< 10,< 10,< 10,< 10,< 10,< 10,< 10,< 10,< 10,< 10,< 10,< 10,inhibition at 10 µM (SF-539): < 10%; inhibition at 10 µM (SK-MEL-2): < 10%; inhibition at 10 µM (MCF7): < 10%; inhibition at 10 µM (LOX IMVI): < 10%; inhibition at 10 µM (U251): < 10%; inhibition at 10 µM (MDA-MB-468): < 10%; inhibition at 10 µM (UO-31): 21%; inhibition at 10 µM (ACHN): < 10%
"CCOC(=O)C1=C(N)N(c2ccccc2)C2=C(C(=O)CC(C)(C)C2)C1c1ccc(F)cc1 (racemic) [8a, (±)-Ethyl 2-amino-4–(4-fluorophenyl)-7,7-dimethyl-5-oxo-1-phenyl-1,4,5,6,7,8-hexahydroquinoline-3-carboxylate]",< 10,< 10,< 10,< 10,< 10,< 10,< 10,< 10,< 10,< 10,< 10,< 10,< 10,< 10,< 10,< 10,< 10,< 10,< 10,< 10,inhibition at 10 µM (SF-539): < 10%; inhibition at 10 µM (SK-MEL-2): < 10%; inhibition at 10 µM (MCF7): < 10%; inhibition at 10 µM (LOX IMVI): < 10%; inhibition at 10 µM (U251): < 10%; inhibition at 10 µM (MDA-MB-468): < 10%; inhibition at 10 µM (UO-31): < 10%; inhibition at 10 µM (ACHN): < 10%
"CCOC(=O)C1=C(N)N(c2ccc(C)cc2)C2=C(C(=O)CC(C)(C)C2)C1c1ccc([N+](=O)[O-])cc1 (racemic) [8j, (±)-Ethyl 2-amino-7,7-dimethyl-1–(4-methylphenyl)-4–(4-nitrophenyl)-5-oxo-1,4,5,6,7,8-hexahydroquinoline-3-carboxylate]",< 10,< 10,< 10,< 10,< 10,< 10,< 10,< 10,< 10,< 10,< 10,< 10,< 10,< 10,< 10,< 10,< 10,< 10,< 10,< 10,inhibition at 10 µM (SK-MEL-2): < 10%; inhibition at 10 µM (MCF7): < 10%; inhibition at 10 µM (LOX IMVI): < 10%; inhibition at 10 µM (U251): < 10%; inhibition at 10 µM (MDA-MB-468): < 10%; inhibition at 10 µM (UO-31): < 10%; inhibition at 10 µM (ACHN): < 10%
